The values that follow come from paper PMC2690590, “Functional recombinant MHC class II molecules and high-throughput peptide-binding assays” (Immunome Research, 2009).

Experiment [1] addresses T1, DR2a (DRA*0101/DRB5*0101) (Homo sapiens, UniProt P01903+Q30154).
T1 construct: DRA*01011-181LZFos; DRB5*01011-190LZJunBSP; made in house
Briefly: Competitive LOCI peptide-MHC-II binding assay, DR2a. As to conditions: for IC50: DR2a Komp IC50 (nM).

For experiment [2], the target named is T1, DR2a (DRA*0101/DRB5*0101). Briefly: Direct LOCI peptide-MHC-II binding assay, DR2a.
Experiment [3] has as its target T2, DR3 (DRA*0101/DRB1*0301) (Homo sapiens, UniProt P01903+P01911, A100K/A102G/A103R/A169T/F55Y/I96L/K41T/L162R/M171V/P40S/Q125H/Q178H/Q39Y/R42S/S66N/T106N/T262R/W38E/Y61H).
T2 construct: DRA*01011-181LZFos; DRB1*03011-190LZJunBSP; made in house
Briefly: Direct LOCI peptide-MHC-II binding assay, DR3.

Experiment [4] has as its target T3, DR4 (DRA*0101/DRB1*0401) (Homo sapiens, UniProt P01903+P01911, A100K/A169T/F76Y/I96L/K127E/L162R/M171V/N62H/P40V/Q125Y/R42H/S133A/S149N/S66Y/V115G/V209L/W38E).
T3 construct: DRA*01011-181LZFos; DRB1*04011-190LZJunBSP; made in house
In words: Direct LOCI peptide-MHC-II binding assay, DR4. The conditions noted are these: for Kd: DR4 affinity (nM).

In experiment [5] the target is T4, DRB1*0813 (DRA*0101/DRB1*0813) (Homo sapiens, UniProt P01903+P01911, A100R/A103L/A169T/F76Y/H45Y/I96L/K41T/L162R/M171V/P40S/Q125H/Q178H/Q39Y/Q99D/R218S/R42G/S66Y/V115G/W38E).
T4 construct: DRA*01011-181LZFos; DRB1*08131-190LZJunBSP; made in house
Briefly: Direct LOCI peptide-MHC-II binding assay, DRB1*0813.

The target in experiment [6] is T5, DRB3*0301 (DRA*0101/DRB3*0301) (Homo sapiens, UniProt P01903+P79483, A169T/A212P/D57E/G115V/L67V/Q178H/R103Q/R40L/Y55F).
T5 construct: DRA*01011-181LZFos; DRB3*03011-190LZJunBSP; made in house
Briefly: Direct LOCI peptide-MHC-II binding assay, DRB3*0301.

Experiment [7] has as its target DP401 (DPA1*0103/DPB1*0401) (Homo sapiens, UniProt P04440+P20036). Briefly: Direct LOCI peptide-MHC-II binding assay, DP401. The conditions noted are these: for Kd: DP401 affinity (nM).
The target of experiment [8] is T6, I-E^d (Mus musculus, UniProt P01904+P01915).
T6 construct: I-E^dA1-191LZFos; I-E^dB1-198LZJunBSP; made in house
In words: Direct LOCI peptide-MHC-II binding assay, I-E^d. As to conditions: for Kd: I-E^D affinity (nM).

Setting [9] is: pH 6-7, 48 h 18°C, read-out: DR3 affinity.
[10] abbreviates: pH 7, 48 h 18°C, read-out: DRB3*0301 affinity.

pIC50, pKd: −log10 of the molar value. Read-outs that look alike come from different tables or passages of the source. Where no end group is shown, it is not given here.

Broadly, the IC50 is the concentration that gives 50% inhibition. In general, Kd refers to the equilibrium constant for the complex coming apart. For `CC[C@H](C)[C@H](NC(=O)[C@@H](N)CCCCN)C(=O)N[C@@H](CC(C)C)C(=O)N[C@@H](CCC(=O)O)C(=O)N1CCC[C@H]1C(=O)N[C@@H](Cc1ccccc1)C(=O)N[C@@H](CCCNC(=N)N)C(=O)N[C@@H](CCCCN)C(=O)N[C@@H](Cc1ccc(O)cc1)C(=O)N[C@H](C(=O)N[C@@H](C)C(=O)N[C@@H](Cc1ccccc1)C(=O)N[C@H](C(=O)N[C@H](C(=O)N1CCC[C@H]1C(=O)O)[C@@H](C)CC)[C@@H](C)O)[C@@H](C)O`, the IC50 in experiment [1] is 1 nM. In addition, the pKd in experiment [2] is 7.80; in experiment [3], 7.74; in experiment [5], 7.96; in experiment [6] it was 5.99. The Kd in experiment [4] was determined as 1600 nM; in experiment [7] it was 30 nM; in experiment [8] it was 2200 nM.

The pIC50 is the IC50 on a negative log10 scale, so that one unit is a factor of ten. `CC(C)C[C@H](NC(=O)CNC(=O)[C@H](Cc1c[nH]c2ccccc12)NC(=O)CNC(=O)[C@@H](NC(=O)[C@@H]1CCCN1C(=O)[C@@H](NC(=O)[C@H](C)NC(=O)[C@H](CC(=O)O)NC(=O)[C@H](C)NC(=O)[C@H](Cc1ccccc1)NC(=O)[C@@H](NC(=O)[C@H](CCC(N)=O)NC(=O)[C@H](CS)NC(=O)[C@H](CC(C)C)NC(=O)[C@@H](N)Cc1ccc(O)cc1)C(C)C)[C@@H](C)O)[C@@H](C)O)C(=O)O`: in experiment [1], the pIC50 was under 5.30. Further, the pKd in experiment [2] is 5.43; in experiment [3], 7.16; in experiment [4], 7.74; in experiment [5], 5.52; in experiment [6], 5.69; in experiment [7], 7.89. The molecule also showed a pKd in experiment [8] of under 5.30.

As to `CC[C@H](C)[C@H](NC(=O)[C@H](Cc1ccccc1)NC(=O)[C@@H]1CCCN1C(=O)[C@@H](N)Cc1ccc(O)cc1)C(=O)N[C@@H](CCC(=O)O)C(=O)N[C@@H](CCC(N)=O)C(=O)N[C@@H](CCC(=O)O)C(=O)NCC(=O)N1CCC[C@H]1C(=O)N[C@@H](CCC(=O)O)C(=O)N[C@@H](Cc1ccccc1)C(=O)N[C@@H](Cc1ccccc1)C(=O)N[C@@H](CC(=O)O)C(=O)N[C@@H](CCC(N)=O)C(=O)N[C@@H](CCC(=O)O)C(=O)O`, in experiment [1], the IC50 is over 5000 nM. Further, the pKd in experiment [2] is under 5.30; in experiment [3] (setting [9]), 6.54; in experiment [5] it was under 5.30; in experiment [6] (setting [10]), 5.49. For the same molecule, the Kd in experiment [7] and in experiment [8] was over 5000 nM each time.

With `CC[C@H](C)[C@H](NC(=O)[C@H](Cc1c[nH]cn1)NC(=O)[C@H](Cc1c[nH]cn1)NC(=O)[C@H](Cc1c[nH]cn1)NC(=O)[C@H](Cc1c[nH]cn1)NC(=O)[C@H](Cc1c[nH]cn1)NC(=O)[C@H](Cc1c[nH]cn1)NC(=O)[C@@H](N)Cc1ccc(O)cc1)C(=O)N[C@@H](CCC(=O)O)C(=O)NCC(=O)N[C@@H](CCCNC(=N)N)C(=O)N[C@@H](CO)C(=O)N[C@@H](Cc1ccccc1)C(=O)N[C@@H](CCC(=O)O)C(=O)N[C@@H](CCCNC(=N)N)C(=O)N[C@@H](Cc1ccccc1)C(=O)N[C@@H](CCC(=O)O)C(=O)N[C@H](C(=O)N[C@@H](Cc1ccccc1)C(=O)N1CCC[C@H]1C(=O)N[C@@H](CCCCN)C(=O)N[C@@H](CCC(=O)O)C(=O)O)[C@@H](C)CC` [6xH Influenza A (PR8) HA 109–119], the pIC50 in experiment [1] was 7.64. Also, the pKd is 8.05 in experiment [2]; 5.84 in experiment [3]; 5.73 in experiment [4]; 6.74 in experiment [5]; 5.82 in experiment [6]; 9.00 in experiment [7]. This molecule also had a pKd in experiment [8] of 6.01.

As for `CSCC[C@H](NC(=O)[C@H](CCCNC(=N)N)NC(=O)[C@H](CCSC)NC(=O)[C@H](CCCCN)NC(=O)[C@H](CO)NC(=O)[C@@H](NC(=O)[C@@H]1CCCN1C(=O)[C@H](CCCCN)NC(=O)[C@@H]1CCCN1C(=O)[C@@H]1CCCN1C(=O)[C@H](CCCCN)NC(=O)[C@@H]1CCCN1C(=O)[C@@H](N)CC(C)C)C(C)C)C(=O)N[C@@H](C)C(=O)N[C@H](C(=O)N1CCC[C@H]1C(=O)N[C@@H](CC(C)C)C(=O)N[C@@H](CC(C)C)C(=O)N[C@@H](CCSC)C(=O)N[C@@H](CCC(N)=O)C(=O)N[C@@H](C)C(=O)N[C@@H](CC(C)C)C(=O)N1CCC[C@H]1C(=O)N[C@@H](CCSC)C(=O)N[C@@H](Cc1ccc(O)cc1)C(=O)N[C@@H](Cc1c[nH]cn1)C(=O)N[C@@H](Cc1c[nH]cn1)C(=O)N[C@@H](Cc1c[nH]cn1)C(=O)N[C@@H](Cc1c[nH]cn1)C(=O)N[C@@H](Cc1c[nH]cn1)C(=O)N[C@@H](Cc1c[nH]cn1)C(=O)O)[C@@H](C)O` [CLIP 6xH], in experiment [1] (competitive LOCI, 4 nM biotin-PEG-HA306–318 agonist, β chain without biotin, α/β 13/5 nM, pH 6-7.5, L243, 48 h 18°C, average of 2–4 measurements, read-out: DR2a Komp IC50), the pIC50 is 9.00. The pKd was 9.00 in experiment [2] (read-out: DR2a pH6 affinity); 9.00 in experiment [3] (read-out: DR3 affinity); 9.00 in experiment [4] (read-out: DR4 affinity); 8.70 in experiment [5] (read-out: DRB1*0813 affinity); 9.00 in experiment [6] (read-out: DRB3*0301 affinity); 9.00 in experiment [7] (read-out: DP401 affinity).

`CC[C@H](C)[C@H](NC(=O)CNC(=O)[C@@H](NC(=O)[C@H](Cc1ccccc1)NC(=O)[C@H](CCCCN)NC(=O)[C@H](CO)NC(=O)[C@H](CC(N)=O)NC(=O)[C@H](C)NC(=O)[C@H](CCCCN)NC(=O)[C@@H](NC(=O)[C@H](Cc1ccc(O)cc1)NC(=O)[C@@H](N)CCC(N)=O)[C@@H](C)CC)[C@@H](C)CC)C(=O)N[C@H](C(=O)N[C@@H](CCC(=O)O)C(=O)O)[C@@H](C)O` [Clostridium tetanus]: the pKd in experiment [6] is 9.00; in experiment [7] it was 7.25; in experiment [8], 5.82.

Regarding `CC[C@H](C)[C@H](N)C(=O)N[C@H](C(=O)N[C@@H](Cc1ccccc1)C(=O)N[C@@H](CCSC)C(=O)N[C@@H](Cc1c[nH]c2ccccc12)C(=O)N[C@@H](C)C(=O)N[C@H](C(=O)N[C@@H](Cc1c[nH]cn1)C(=O)N[C@@H](Cc1c[nH]cn1)C(=O)O)[C@@H](C)CC)C(C)C` [Flu HA1194-202], in experiment [1], the negative logarithm of the IC50 (pIC50) was 6.28. In addition, the pKd was 6.78 in experiment [2]; under 5.30 in experiment [3]; under 5.30 in experiment [4]; 6.56 in experiment [5]; under 5.30 in experiment [6]; under 5.30 in experiment [7]. This molecule had a pKd in experiment [8] of under 5.30.

As for `CSCC[C@H](NC(=O)[C@@H](N)Cc1ccccc1)C(=O)N[C@@H](CO)C(=O)N[C@@H](CCCNC(=N)N)C(=O)N[C@@H](CCCCN)C(=O)N[C@@H](CC(C)C)C(=O)N[C@@H](Cc1c[nH]cn1)C(=O)N[C@@H](CCCNC(=N)N)C(=O)N[C@@H](Cc1ccc(O)cc1)C(=O)O` [Hantaan], the pIC50 in experiment [1] was 5.59. Also, the pKd in experiment [2] was under 5.30; in experiment [8], 8.52.

In the case of FLYGALLLA [MBP], the IC50 in experiment [1] is over 5000 nM. The pKd in experiment [2], in experiment [3] and in experiment [5] was under 5.30 each time. Moreover, the equilibrium dissociation constant (Kd) in experiment [4] is over 5000 nM; in experiment [7], 34 nM; in experiment [8] it was over 5000 nM.

With WMARRHAER [Brucella], in experiment [1], the pIC50 was under 5.30. For the same molecule, the pKd is under 5.30 in experiment [2] and 8.22 in experiment [8].

For the molecule YILFLVKMNALRRLPV, the pIC50 in experiment [1] (pH 6-7.5, 48 h 18°C, read-out: DR2a Komp IC50) was 7.70. For the same molecule, the pKd is 8.30 in experiment [2] (pH 6, 48 h 18°C, read-out: DR2a pH6 affinity); 7.41 in experiment [3] (setting [9]); 7.11 in experiment [5] (pH 6-7.5, 48 h 18°C, read-out: DRB1*0813 affinity); 8.52 in experiment [6] (setting [10]); 7.35 in experiment [7] (pH 7, 48 h 18°C, read-out: DP401 affinity); 6.24 in experiment [8] (48 h 18°C, read-out: I-E^D affinity).

With YLFFYRKSV [TERT572Y], the IC50 in experiment [1] is over 5000 nM. Moreover, the pKd in experiment [2] is 5.58; in experiment [3], under 5.30; in experiment [5], 7.02. Besides, the dissociation constant (Kd) is 1590 nM in experiment [4], over 5000 nM in experiment [7] and 322 nM in experiment [8].
